# In the supplement of paper PMC10307832:
# Compound: Cn1cnc2c(F)c(Nc3ccc(Br)cc3Cl)c(C(=O)NOCCO)cc21 [Selumetinib] + CS(=O)(=O)N1CCN(Cc2cc3nc(-c4cccc5[nH]ncc45)nc(N4CCOCC4)c3s2)CC1 [Pictilisib] (partner 1 µM)
# Test: relative viability (nuclei count vs DMSO), 5 days (fraction); higher = more cells survive
# Details: first compound 0.02 µM
# In short: (§1)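 Lung cancer cell lines in 1536-well plates got either a single drug or a fixed anchor-drug dose together with five library-drug doses (not always all listed) in √10 steps, by pin tool, on the day after seeding. Nuclei were counted after 5 days, and relative viability is the treated-to-vehicle ratio of nuclei counts. Values are medians of duplicate plates.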
row,Cell Line,relative viability
1,NCI-H1666,0.346
2,NCI-H1755,0.446
3,EPLC-272H,0.299
4,LCLC-97TM1,0.212
5,PC-3 [JPC-3],0.711
6,LOU-NH91,0.503
7,NCI-H647,0.422
8,NCI-H23,0.484
9,EMC-BAC-2,0.556
10,NCI-H2126,0.477
11,HCC-44,0.562
12,NCI-H1734,0.486
13,NCI-H650,1
14,LK-2,0.761
15,HARA,0.285
16,LC-2-ad,0.482
17,LXF-289,0.735
18,ChaGo-K-1,0.619
19,NCI-H2170,0.27

row,Cell Line,relative viability
1,NCI-H322M,0.428
2,HCC-78,0.0694
3,BEN,0.632
4,HCC-15,0.509
5,HCC-827,0.82
6,NCI-H460,0.272
7,LU99A,0.34
8,NCI-H2085,0.449
9,A-427,0.752
10,NCI-H838,0.458
11,NCI-H1792,0.238
12,NCI-H596,0.372
13,NCI-H3122,0.396
14,NCI-H1395,0.598
15,201T,0.641
16,NCI-H1993,0.945
17,HOP-62,0.713
18,NCI-H1355,0.369

# Same assay, conditions: first compound 0.06325 µM
row,Cell Line,relative viability
1,NCI-H1666,0.22
2,NCI-H1755,0.426
3,EPLC-272H,0.253
4,LCLC-97TM1,0.161
5,PC-3 [JPC-3],0.718
6,LOU-NH91,0.496
7,NCI-H647,0.384
8,NCI-H23,0.344
9,EMC-BAC-2,0.53
10,NCI-H2126,0.434
11,HCC-44,0.525
12,NCI-H1734,0.363
13,NCI-H650,0.912
14,LK-2,0.547
15,HARA,0.391
16,LC-2-ad,0.426
17,LXF-289,0.615
18,ChaGo-K-1,0.838
19,NCI-H2170,0.306

row,Cell Line,relative viability
1,NCI-H322M,0.415
2,HCC-78,0.181
3,BEN,0.545
4,HCC-15,0.31
5,HCC-827,1.23
6,NCI-H460,0.249
7,LU99A,0.317
8,NCI-H2085,0.374
9,A-427,0.583
10,NCI-H838,0.314
11,NCI-H1792,0.197
12,NCI-H596,0.333
13,NCI-H3122,0.298
14,NCI-H1395,0.577
15,201T,0.693
16,NCI-H1993,0.815
17,HOP-62,0.407
18,NCI-H1355,0.409

# Same assay, conditions: first compound 0.2 µM
row,Cell Line,relative viability
1,NCI-H1666,0.264
2,NCI-H1755,0.342
3,EPLC-272H,0.245
4,LCLC-97TM1,0.158
5,PC-3 [JPC-3],0.456
6,LOU-NH91,0.523
7,NCI-H647,0.173
8,NCI-H23,0.352
9,EMC-BAC-2,0.523
10,NCI-H2126,0.408
11,HCC-44,0.379
12,NCI-H1734,0.438
13,NCI-H650,0.887
14,LK-2,0.565
15,HARA,0.31
16,LC-2-ad,0.432
17,LXF-289,0.537
18,ChaGo-K-1,0.55
19,NCI-H2170,0.276

row,Cell Line,relative viability
1,NCI-H322M,0.446
2,HCC-78,0.134
3,BEN,0.461
4,HCC-15,0.25
5,HCC-827,0.79
6,NCI-H460,0.207
7,LU99A,0.412
8,NCI-H2085,0.356
9,A-427,0.493
10,NCI-H838,0.321
11,NCI-H1792,0.196
12,NCI-H596,0.31
13,NCI-H3122,0.206
14,NCI-H1395,0.569
15,201T,0.625
16,NCI-H1993,0.866
17,HOP-62,0.26
18,NCI-H1355,0.315

# Same assay, conditions: first compound 0.6325 µM
row,Cell Line,relative viability
1,NCI-H1666,0.239
2,NCI-H1755,0.365
3,EPLC-272H,0.208
4,LCLC-97TM1,0.125
5,PC-3 [JPC-3],0.503
6,LOU-NH91,0.539
7,NCI-H647,0.318
8,NCI-H23,0.29
9,EMC-BAC-2,0.492
10,NCI-H2126,0.416
11,HCC-44,0.337
12,NCI-H1734,0.438
13,NCI-H650,0.993
14,LK-2,0.544
15,HARA,0.15
16,LC-2-ad,0.437
17,LXF-289,0.552
18,ChaGo-K-1,0.824
19,NCI-H2170,0.249

row,Cell Line,relative viability
1,NCI-H322M,0.373
2,HCC-78,0.216
3,BEN,0.534
4,HCC-15,0.207
5,HCC-827,0.904
6,NCI-H460,0.209
7,LU99A,0.351
8,NCI-H2085,0.365
9,A-427,0.421
10,NCI-H838,0.339
11,NCI-H1792,0.144
12,NCI-H596,0.296
13,NCI-H3122,0.211
14,NCI-H1395,0.639
15,201T,0.677
16,NCI-H1993,0.807
17,HOP-62,0.261
18,NCI-H1355,0.296

# Compound: CC1(C)CCC(CN2CCN(c3ccc(C(=O)NS(=O)(=O)c4ccc(NCC5CCOCC5)c([N+](=O)[O-])c4)c(Oc4cnc5[nH]ccc5c4)c3)CC2)=C(c2ccc(Cl)cc2)C1 [Venetoclax] + O=C(c1cc(Cc2n[nH]c(=O)c3ccccc23)ccc1F)N1CCN(C(=O)C2CC2)CC1 [Olaparib] (partner 8 µM)
# Test: as above
# Details: first compound 0.01 µM
# In short: as §1
row,Cell Line,relative viability
1,NCI-H1666,0.77
2,NCI-H1755,0.879
3,EPLC-272H,0.63
4,LCLC-97TM1,0.242
5,PC-3 [JPC-3],1.15
6,LOU-NH91,0.821
7,NCI-H647,0.521
8,NCI-H23,0.311
9,EMC-BAC-2,0.503
